Assay results taken from ChEMBL document CHEMBL5104093, “A comprehensive review on β-lapachone: Mechanisms, structural modifications, and therapeutic potentials” (Eur J Med Chem, 2021).
Values after ≈ are worked out from the molar mass of the structure shown.

How the values were obtained:
[1] = Cytotoxicity against mouse L929 cells assessed as reduction in cell viability incubated for 72 hrs by MTT assay; assay type: toxicity, cell-based
HCT-116 [2] = assay: Cytotoxicity against human HCT-116 cells assessed as reduction in cell viability incubated for 72 hrs by MTT assay; assay type: functional, cell-based; conditions: HCT-116, 72 h
MCF7 = assay: Cytotoxicity against human MCF7 cells assessed as reduction in cell viability incubated for 72 hrs by MTT assay; assay type: functional, cell-based; conditions: MCF7, 72 h
SNB-19 = assay: Cytotoxicity against human SNB-19 cells assessed as reduction in cell viability incubated for 72 hrs by MTT assay; assay type: functional, cell-based; conditions: SNB-19, 72 h
PC-3 = assay: Cytotoxicity against human PC-3 cells assessed as reduction in cell viability incubated for 72 hrs by MTT assay; assay type: functional, cell-based; conditions: PC-3, 72 h
B16-F10 = assay: Cytotoxicity against mouse B16-F10 cells assessed as reduction in cell viability incubated for 72 hrs by MTT assay; assay type: functional, cell-based; conditions: B16-F10, 72 h
[3] = Cytotoxicity against human AGP01 cells assessed as reduction in cell viability incubated for 72 hrs by alamar blue assay; assay type: functional, cell-based; conditions: AGP01, 72 h
[4] = Cytotoxicity against human ACP03 cells assessed as reduction in cell viability incubated for 72 hrs by alamar blue assay; assay type: functional, cell-based; conditions: ACP03, 72 h
HepG2 = assay: Cytotoxicity against human HepG2 cells assessed as reduction in cell viability incubated for 72 hrs by alamar blue assay; assay type: functional, cell-based; conditions: HepG2, 72 h
SCC-25 = assay: Cytotoxicity against human SCC-25 cells assessed as reduction in cell viability incubated for 72 hrs by alamar blue assay; assay type: functional, cell-based; conditions: SCC-25, 72 h
HSC-3 = assay: Cytotoxicity against human HSC-3 cells assessed as reduction in cell viability incubated for 72 hrs by alamar blue assay; assay type: functional, cell-based; conditions: HSC-3, 72 h
SCC-4 = assay: Cytotoxicity against human SCC-4 cells assessed as reduction in cell viability incubated for 72 hrs by alamar blue assay; assay type: functional, cell-based; conditions: SCC-4, 72 h
HT-29 = assay: Cytotoxicity against human HT-29 cells assessed as reduction in cell viability incubated for 72 hrs by alamar blue assay; assay type: functional, cell-based; conditions: HT-29, 72 h
[5] = Selectivity index, ratio of IC50 for human PBMC cells to IC50 for human HL-60 cells; assay type: toxicity; conditions: PBMC cells versus HL-60 cells, read-out: Ratio IC50
HL-60 [6] = assay: Cytotoxicity against human HL-60 cells assessed as reduction in cell viability incubated for 72 hrs by alamar blue assay; assay type: functional, cell-based; conditions: HL-60, 72 h
SCC-15 = assay: Cytotoxicity against human SCC-15 cells assessed as reduction in cell viability incubated for 72 hrs by alamar blue assay; assay type: functional, cell-based; conditions: SCC-15, 72 h
SCC-9 = assay: Cytotoxicity against human SCC-9 cells assessed as reduction in cell viability incubated for 72 hrs by alamar blue assay; assay type: functional, cell-based; conditions: SCC-9, 72 h
K562 [7] = assay: Cytotoxicity against human K562 cells assessed as reduction in cell viability incubated for 72 hrs by alamar blue assay; assay type: functional, cell-based; conditions: K562, 72 h
HCT-116 [8] = assay: Cytotoxicity against human HCT-116 cells assessed as reduction in cell viability incubated for 72 hrs by alamar blue assay; assay type: functional, cell-based; conditions: HCT-116, 72 h
[9] = Cytotoxicity against human ACP02 cells assessed as reduction in cell viability incubated for 72 hrs by alamar blue assay; assay type: functional, cell-based; conditions: ACP02, 72 h
[10] = Cytotoxicity against African green monkey BSC40 cells assessed as viable cells incubated for 24 hrs by Neutral red dye based spectrophotometer analysis; assay type: toxicity, cell-based; conditions: chlorocebus aethiops, bsc40, 24 h
Staphylococcus aureus [11] = assay: Antibacterial activity against Methicillin-resistant Staphylococcus aureus ATCC 29213 assessed as bacterial growth inhibition incubated for 24 hrs by Mueller-Hinton broth based assay; assay type: functional
[12] = test system: Staphylococcus haemolyticus; assay: Antibacterial activity against Methicillin-resistant Staphylococcus haemolyticus clinical isolates assessed as bacterial growth inhibition incubated for 24 hrs by Mueller-Hinton broth based assay; assay type: functional
Staphylococcus aureus [13] = assay: Antibacterial activity against Methicillin-resistant Staphylococcus aureus ATCC 33591 assessed as bacterial growth inhibition incubated for 24 hrs by Mueller-Hinton broth based assay; assay type: functional
[14] = test system: Staphylococcus epidermidis; assay: Antibacterial activity against Methicillin-resistant Staphylococcus epidermidis clinical isolates assessed as bacterial growth inhibition incubated for 24 hrs by Mueller-Hinton broth based assay; assay type: functional
B16 = assay: Cytotoxicity against mouse B16 cells assessed as reduction in cell viability incubated for 72 hrs by MTT assay; assay type: functional, cell-based; conditions: B16, 72 h
MDA-MB-435 = assay: Cytotoxicity against human MDA-MB-435 cells assessed as reduction in cell viability incubated for 72 hrs by MTT assay; assay type: functional, cell-based; conditions: MDA-MB-435, 72 h
Enterococcus faecalis = assay: Antibacterial activity against Enterococcus faecalis clinical isolates assessed as bacterial growth inhibition by broth macrodilution method; assay type: functional
HCT-8 = assay: Cytotoxicity against human HCT-8 cells assessed as reduction in cell viability incubated for 72 hrs by MTT assay; assay type: functional, cell-based; conditions: HCT-8, 72 h
SF-295 = assay: Cytotoxicity against human SF-295 cells assessed as reduction in cell viability incubated for 72 hrs by MTT assay; assay type: functional, cell-based; conditions: SF-295, 72 h
HL-60 [15] = assay: Cytotoxicity against human HL-60 cells assessed as reduction in cell viability incubated for 72 hrs by MTT assay; assay type: functional, cell-based; conditions: HL-60, 72 h
Sporothrix [16] = assay: Antifungal activity against Sporothrix brasiliensis assessed as fungal growth inhibition incubated for 48 hrs by CLSI-based broth microdilution assay; assay type: functional
Sporothrix schenckii [17] = assay: Antifungal activity against Sporothrix schenckii assessed as fungal growth inhibition incubated for 48 hrs by CLSI-based broth microdilution assay; assay type: functional
Plasmodium berghei = assay: Antiplasmodial activity against Plasmodium berghei infected in Swiss mouse assessed as reduction in parasite growth at 200 mg/kg, sc administered for 7 days; assay type: functional; conditions: 168 h, time 7 day
[18] = test system: Mycobacterium tuberculosis; assay: Antimycobacterial activity against Mycobacterium tuberculosis H37Rv ATCC 27294 assessed as bacterial growth inhibition incubated for 5 days by Alamar blue reagent based assay; assay type: functional; conditions: ATCC 27294, 120 h, time 5 day
Sporothrix schenckii [19] = assay: Antifungal activity against Sporothrix schenckii assessed as fungal growth inhibition incubated for 48 hrs in presence of itraconazole by CLSI-based broth microdilution assay; assay type: functional
Sporothrix [20] = assay: Antifungal activity against Sporothrix brasiliensis assessed as fungal growth inhibition incubated for 48 hrs in presence of itraconazole by CLSI-based broth microdilution assay; assay type: functional
MX1 = assay: Cytotoxicity against human MX1 cells assessed as reduction in cell viability incubated for 72 hrs by MTT assay; assay type: functional, cell-based; conditions: MX1, 72 h
SW-620 = assay: Cytotoxicity against human SW-620 cells assessed as reduction in cell viability incubated for 72 hrs by MTT assay; assay type: functional, cell-based; conditions: SW-620, 72 h
OVCAR-8 = assay: Cytotoxicity against human OVCAR-8 cells assessed as reduction in cell viability incubated for 72 hrs by MTT assay; assay type: functional, cell-based; conditions: OVCAR-8, 72 h
UACC-62 = assay: Cytotoxicity against human UACC-62 cells assessed as reduction in cell viability incubated for 72 hrs by MTT assay; assay type: functional, cell-based; conditions: UACC-62, 72 h
MDA-MB-231 = assay: Cytotoxicity against human MDA-MB-231 cells assessed as reduction in cell viability incubated for 72 hrs by MTT assay; assay type: functional, cell-based; conditions: MDA-MB-231, 72 h
K562 [21] = assay: Cytotoxicity against human K562 cells assessed as reduction in cell viability incubated for 72 hrs by MTT assay; assay type: functional, cell-based; conditions: K562, 72 h
Hs-578T = assay: Cytotoxicity against human Hs-578T cells assessed as reduction in cell viability incubated for 72 hrs by MTT assay; assay type: functional, cell-based
NCI-H358 = assay: Cytotoxicity against human NCI-H358 cells assessed as reduction in cell viability incubated for 72 hrs by MTT assay; assay type: functional, cell-based; conditions: NCI-H358, 72 h
CCRF-CEM = assay: Cytotoxicity against human CEM cells assessed as reduction in cell viability incubated for 72 hrs by MTT assay; assay type: functional, cell-based
MOLT-4 = assay: Cytotoxicity against human MOLT-4 cells assessed as reduction in cell viability incubated for 72 hrs by MTT assay; assay type: functional, cell-based; conditions: MOLT-4, 72 h
COLO 205 = assay: Cytotoxicity against human COLO 205 cells assessed as reduction in cell viability incubated for 72 hrs by MTT assay; assay type: functional, cell-based; conditions: COLO 205, 72 h
HCT-15 = assay: Cytotoxicity against human HCT-15 cells assessed as reduction in cell viability incubated for 72 hrs by MTT assay; assay type: functional, cell-based; conditions: HCT-15, 72 h
DU-145 = assay: Cytotoxicity against human DU-145 cells assessed as reduction in cell viability incubated for 72 hrs by MTT assay; assay type: functional, cell-based; conditions: DU-145, 72 h

O=C1C(=O)c2ccccc2C2=C1CC(C[Se]c1cccs1)O2 (stereo unspecified)
IC50 at 72 h [1]: 1060 nM | IC50 (HCT-116 [2]): 1060 nM | IC50 (MCF7): 1060 nM | IC50 (SNB-19): 1060 nM | IC50 (PC-3): 1060 nM | IC50 (B16-F10): 1060 nM

CC1(C)OC2=C(CC1I)C(=O)C(=O)c1ccccc12 (stereo unspecified)
IC50 [3]: 20 nM | IC50 [4]: 20 nM | IC50 (HepG2): 20 nM | IC50 (SCC-25): 20 nM | IC50 (HSC-3): 20 nM | IC50 (SCC-4): 20 nM | IC50 (HT-29): 20 nM | selectivity ratio [5]: 1690 | IC50 (HL-60 [6]): 20 nM | IC50 (SCC-15): 20 nM | IC50 (SCC-9): 20 nM | IC50 (K562 [7]): 20 nM | IC50 (HCT-116 [8]): 20 nM | IC50 [9]: 20 nM

CC1(C)OC2=C(C(=O)C(=O)c3ccccc32)C1O (stereo unspecified)
MTC [10]: 2 µg/mL | MBC (Staphylococcus aureus [11]): > 512 µg/mL | MIC (Staphylococcus aureus [11]): 4 µg/mL (≈ 16.4 µM) | MBC [12]: > 512 µg/mL | MIC [12]: 4 µg/mL (≈ 16.4 µM) | MBC (Staphylococcus aureus [13]): > 512 µg/mL | MIC (Staphylococcus aureus [13]): 4 µg/mL (≈ 16.4 µM) | MBC [14]: > 512 µg/mL | MIC [14]: 4 µg/mL (≈ 16.4 µM)

CC1(C)OC2=C(C(=O)C(=O)c3ccccc32)C1n1cc(C2(O)CCCCC2)nn1 (stereo unspecified)
IC50 (B16): 430 nM | IC50 (MDA-MB-435): 430 nM | MIC (Enterococcus faecalis): 16 µg/mL (≈ 40.7 µM) | IC50 (HCT-8): 430 nM | IC50 (SF-295): 430 nM | IC50 (PC-3): 430 nM | IC50 (HL-60 [15]): 430 nM

CCC(C)n1ncn(-c2ccc(N3CCN(c4ccc(OCC5COC(Cn6cncn6)(c6ccc(Cl)cc6Cl)O5)cc4)CC3)cc2)c1=O (stereo unspecified) [ITRACONAZOLE]
MIC (Sporothrix [16]): 0.125 µM (≈ 0.0882 µg/mL) | MIC (Sporothrix schenckii [17]): 0.125 µM (≈ 0.0882 µg/mL)

CC1(C)Oc2c(c3nc4ccccc4nc3c3ccccc23)CC1S(=O)(=O)O (stereo unspecified)
inhibition in vivo at 200 mg/kg (Plasmodium berghei): 98%

O=C(N[C@H](CO)[C@H](O)c1ccc([N+](=O)[O-])cc1)C(Cl)Cl [CHLORAMPHENICOL]
MIC (Enterococcus faecalis): 12 µg/mL (≈ 37.1 µM)

CC1(C)OC2=C(C(=O)C(=O)c3ccccc32)C1n1cc(-c2ccccc2)nn1 (stereo unspecified)
IC50 (B16): < 1210 nM | IC50 (MDA-MB-435): < 1210 nM | MIC (Enterococcus faecalis): 8 µg/mL (≈ 21.5 µM) | IC50 (HCT-8): < 1210 nM | IC50 (SF-295): < 1210 nM | IC50 (PC-3): < 1210 nM | IC50 (HL-60 [15]): 1210 nM

Cc1ccc(C2CC(c3ccccc3)C3=C(O2)c2ccccc2C(=O)C3=O)cc1 (stereo unspecified)
MIC [18]: 3.12 µg/mL (≈ 8.2 µM)

O=C1C(=O)c2ccccc2C2=C1CC(c1ccccc1)O2 (stereo unspecified)
MIC (Sporothrix [16]): 2 µM (≈ 0.553 µg/mL) | MIC (Sporothrix schenckii [19]): 0.06 µM | MIC (Sporothrix [20]): 0.03 µM | MIC (Sporothrix schenckii [17]): 2 µM (≈ 0.553 µg/mL)

CC1(C)OC2=C(C(=O)C(=O)c3ccccc32)C1n1cc(-c2ccc(Nc3ccccn3)c3nsnc23)nn1 (stereo unspecified)
IC50 (MX1): 480 nM | IC50 (SW-620): 480 nM | IC50 (OVCAR-8): 480 nM | IC50 (UACC-62): 480 nM | IC50 (MDA-MB-231): 480 nM | IC50 (MCF7): 480 nM | IC50 (K562 [21]): 480 nM | IC50 (MDA-MB-435): 480 nM | IC50 (Hs-578T): 480 nM | IC50 (NCI-H358): 480 nM | IC50 (CCRF-CEM): 480 nM | IC50 (HCT-8): 480 nM | IC50 (SF-295): 480 nM | IC50 (MOLT-4): 480 nM | IC50 (HL-60 [6]): 480 nM | IC50 (PC-3): 480 nM | IC50 (COLO 205): 480 nM | IC50 (HCT-15): 480 nM | IC50 (DU-145): 480 nM
